From patent publication US20100130737A1, “Regulating Agent of GPR34 Receptor Function” (TAKEDA PHARMACEUTICAL COMPANY LIMITED, priority 2005, published 2010)

How the values were obtained:
human GPR34 = human GPR34 (Homo sapiens, UniProt Q9UPC5); assay: Human GPR34 antagonist activity indicated by changes in intracellular calcium concentration (FLIPR); assay type: cell-based; set-up: expressed in transfected cells; host or cells: CHO cells (human GPR34CHO line) stably transfected with pCR3.1 human lung Gα16; details: CHO cells expressing human GPR34/Gα16, against 2 μM lysoPS final concentration, Fluo-3AM
Procedure: CHO cells expressing human GPR34/Gα were diluted to 3×10^4/100 μl in cell culture medium [nucleic acid-free Minimum Essential Alpha Medium (Invitrogen) containing 10% dialyzed fetal bovine serum (Invitrogen) 0.5 mg/ml Geneticin (Invitrogen), penicillin and streptomycin (Invitrogen)], dispensed 100 μl per well into a Black walled 96-well plate (Costar), and cultured overnight in a CO2 incubator. Changes in intracellular calcium concentration were measured with a FLIPR (Molecular Device) by the methods described below.
50 μg of Fluo-3AM (Dojindo) was dissolved in 21 μl of DMSO (Dojindo), an equal amount of 20% pluronic acid (Molecular Probes) was added and mixed, and this was added to 10.6 ml of assay buffer [prepared by adding 20 ml of 1 M HEPES (pH 7.4, Dojindo) to HBSS (Invitrogen), and then adding 10 ml of a solution obtained by dissolving 710 mg of Probenecid (Sigma) in 5 ml of 1 N NaOH and then adding and mixing 5 ml of the HBSS/HEPES solution)] with 105 μl of fetal bovine serum added thereto to prepare a fluorescent dye solution. The medium was removed from the cell plate, 100 μl per well of the fluorescent dye solution was immediately poured in, and the cells were cultured for 1 hour in a CO2 incubator to incorporate the fluorescent dye into the cells. After culture, the cells were washed with the aforementioned assay buffer. The compound was dissolved in DMSO (Wako Pure Chemical), diluted with DMSO as necessary, added to the aforementioned assay buffer to the target concentration and poured into the plate. To measure antagonist activity, 8 μM lysophosphatidyl serine (lysoPS, Alexis) solution (2 μM final concentration during reaction) was poured into the plate, which was set in the FLIPR. Following these preliminaries, the agonist effect was measured in the FLIPR by measuring changes in intracellular calcium concentration up to 180 seconds after addition of the sample, and after 200 seconds lysoPS was added and the antagonist effect was measured. In the case of the agonist effect, the EC50 value of the added compound was calculated from the dose reaction curve using changes in fluorescent strength from 0 to 180 seconds after the start of the reaction. In the case of the antagonist effect, the IC50 was calculated from the dose reaction curve using changes in maximum fluorescent strength after 200 to 380 seconds of reaction time. The data was analyzed using “GraphPad PRISM4”.

Chain of human GPR34 (Q9UPC5 whole entry): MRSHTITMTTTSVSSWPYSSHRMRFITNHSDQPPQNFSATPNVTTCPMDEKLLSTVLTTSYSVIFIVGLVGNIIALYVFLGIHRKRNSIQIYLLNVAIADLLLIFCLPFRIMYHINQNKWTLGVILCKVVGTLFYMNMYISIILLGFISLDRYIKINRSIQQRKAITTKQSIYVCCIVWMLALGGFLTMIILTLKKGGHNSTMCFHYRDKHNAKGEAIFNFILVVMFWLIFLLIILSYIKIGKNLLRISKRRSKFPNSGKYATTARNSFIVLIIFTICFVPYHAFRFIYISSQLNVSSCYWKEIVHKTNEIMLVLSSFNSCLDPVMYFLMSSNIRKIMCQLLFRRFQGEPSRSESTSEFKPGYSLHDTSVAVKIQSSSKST

| melting point | IC50 (human GPR34) [nM] | Compound |
| --- | --- | --- |
| 194 to 195 °C | ≤ 1000 | O=C(/C=C/c1cccc(-c2ccc(Cl)cc2)c1)N[C@@H](Cc1ccc(OCc2ccccc2)cc1)C(=O)O [Example D1, O-Benzyl-N-[(2E)-3-(4′-chlorobiphenyl-3-yl)propa-2-enoyl]tyrosine] |
| 253 to 254 °C | ≤ 1000 | O=C(/C=C/c1ccc(-c2ccc(Cl)cc2)cc1)N[C@@H](Cc1ccc(OCc2ccccc2)cc1)C(=O)O [Example D2, O-Benzyl-N-[(2E)-3-(4′-chlorobiphenyl-4-yl)propa-2-enoyl]tyrosine] |
| 270 to 271 °C | ≤ 1000 | O=C(N[C@@H](Cc1ccc(OCc2ccccc2)cc1)C(=O)O)c1cn2cc(-c3ccc(Cl)cc3)ccc2n1 [Example E1, O-Benzyl-N-{[6-(4-chlorophenyl)imidazo[1,2-a]pyridin-2-yl]carbonyl}tyrosine] |
| 242 to 243 °C | ≤ 1000 | O=C(N[C@@H](Cc1ccc(OCc2ccccc2)cc1)C(=O)O)c1cn2nc(-c3ccc(Cl)cc3)ccc2n1 [Example E3, O-Benzyl-N-{[6-(4-chlorophenyl)imidazo[1,2-b]pyridazin-2-yl]carbonyl}tyrosine] |
| 260 °C | ≤ 1000 | O=C(N[C@@H](Cc1ccc(NCc2ccccc2)cc1)C(=O)O)c1cn2cc(-c3ccc(Cl)cc3)ccc2n1 [Example E5, 4-(Benzylamino)-N-([6-(4-chlorophenyl)imidazo[1,2-a]pyridin-2-yl]carbonyl}phenylalanine] |
| 218 °C | ≤ 1000 | O=C(N[C@@H](Cc1ccc(OCc2ccccc2)cc1)C(=O)O)c1cn2c(-c3ccc(Cl)cc3)cccc2n1 [Example E9, O-Benzyl-N-{[5-(4-chlorophenyl)imidazo[1,2-a]pyridin-2-yl]carbonyl}tyrosine] |
| 216 °C | ≤ 1000 | CN(C(=O)c1cn2cc(-c3ccc(Cl)cc3)ccc2n1)[C@@H](Cc1ccc(OCc2ccccc2)cc1)C(=O)O [Example E12, O-Benzyl-N-{[6-(4-chlorophenyl)imidazo[1,2-a]pyridin-2-yl]carbonyl}-N-methyltyrosine] |
| 102 to 103 °C | ≤ 1000 | O=C(N[C@@H](Cc1ccc(OCc2ccccc2)cc1)C(=O)O)c1cc2nccc(-c3ccc(Cl)cc3)n2n1 [Example E16, O-Benzyl-N-{[7-(4-chlorophenyl)pyrazolo[1,5-a]pyrimidin-2-yl]carbonyl}tyrosine] |
| 238 °C | ≤ 1000 | O=C(N[C@@H](Cc1ccc(OCc2ccccc2)cc1)C(=O)O)c1cn2cc(-c3ccccc3F)ccc2n1 [Example E19, O-Benzyl-N-{[6-(2-fluorophenyl)imidazo[1,2-a]pyridin-2-yl]carbonyl}tyrosine] |
| 224 to 227 °C | ≤ 1000 | O=C(N[C@@H](Cc1ccc(OCc2ccccc2)cc1)C(=O)O)c1cn2nc(C#Cc3ccccc3)ccc2n1 [Example E22, O-Benzyl-N-{[6-(phenylethynyl)imidazo[1,2-b]pyridazin-2-yl]carbonyl}tyrosine] |
| 232 °C | ≤ 1000 | CS(=O)(=O)NC(=O)[C@H](Cc1ccc(OCc2ccccc2)cc1)NC(=O)c1cn2cc(-c3ccc(Cl)cc3)ccc2n1 [Example E23, O-Benzyl-Nα-{[6-(4-chlorophenyl)imidazo[1,2-a]pyridin-2-yl]carbonyl}-N-(methylsulfonyl)tyrosinamide] |

More lines, now with the values behind:

| Compound | melting point | IC50 (human GPR34) [nM] |
| --- | --- | --- |
| O=C(N[C@@H](Cc1ccc(OCc2ccccc2)cc1)C(=O)O)c1cc2ccc(-c3ccc(Cl)cc3)cc2s1 [Example C122, O-Benzyl-N-{[6-(4-chlorophenyl)-1-benzothiophene-2-yl]carbonyl}tyrosine] | 237 to 239 °C | ≤ 1000 |
| O=C(N[C@@H](Cc1ccc(OCc2ccccc2)cc1)C(=O)O)c1cc2cc(-c3ccc(Cl)cc3)ccc2s1 [Example C123, O-Benzyl-N-{[5-(4-chlorophenyl)-1-benzothiophene-2-yl]carbonyl}tyrosine] | 206 to 207 °C | ≤ 1000 |
| O=C(N[C@@H](Cc1ccc(OCc2ccccc2)cc1)C(=O)O)c1cc2cc(C#Cc3ccccc3)ccc2s1 [Example C139, O-Benzyl-N-{[5-(phenylethynyl)-1-benzothiophene-2-yl]carbonyl}tyrosine] | 198 to 199 °C | ≤ 1000 |
| Cc1c(C(=O)N[C@@H](Cc2ccc(OCc3ccccc3)cc2)C(=O)O)oc2ccc(-c3ccc(Cl)cc3)cc12 [Example C142, O-Benzyl-N-{[5-(4-chlorophenyl)-3-methyl1-benzofuran-2-yl]carbonyl}tyrosine] | 209 to 210 °C | ≤ 1000 |
| O=C(N[C@@H](Cc1ccc(OCc2ccccc2)cc1)C(=O)O)c1cc2ccc(-c3ccc(Cl)cc3)cc2o1 [Example C143, O-Benzyl-N-{[6-(4-chlorophenyl)-1-benzofuran-2-yl]carbonyl}tyrosine] | 170 to 171 °C | ≤ 1000 |
| O=C(N[C@@H](Cc1ccc(OCc2ccccc2)cc1)C(=O)O)c1nc2ccc(/C=C/c3ccccc3)cc2[nH]1 [Example C144, O-Benzyl-N-({6-[(E)-2-phenylethenyl]-1H-benzimidazol-2-yl)carbonyl)tyrosine] | 247 °C (dec.) | ≤ 1000 |
| O=C(N[C@@H](Cc1ccc(OCc2ccccc2)cc1)C(=O)O)C1=Cc2ccc(-c3ccc(Cl)cc3)cc2SC1 [Example C145, O-Benzyl-N-{[7-(4-chlorophenyl)-2H-thiochromene-3-yl]carbonyl}tyrosine] | 225 to 227 °C | ≤ 1000 |
| O=C(N[C@@H](Cc1ccc(OCc2ccccc2)cc1)C(=O)O)c1cc2cc(-c3ccc(Cl)cc3)ccc2[nH]c1=O [Example C146, O-Benzyl-N-{[6-(4-chlorophenyl)-2-oxo-1,2-dihydroquinolin-3-yl]carbonyl}tyrosine] | 298 to 299 °C | ≤ 1000 |
| Nc1c(C(=O)N[C@@H](Cc2ccc(OCc3ccccc3)cc2)C(=O)O)oc2cc(-c3ccc(Cl)cc3)ccc12 [Example C147, N-{[3-Amino-6-(4-chlorophenyl)-1-benzofuran-2-yl]carbonyl}-O-benzyltyrosine] | 250 °C (dec.) | ≤ 1000 |
| O=C(N[C@@H](Cc1ccc(OCc2ccccc2)cc1)C(=O)O)c1cc2cc(-c3ccc(Cl)cc3)ccc2o1 [Example C148, O-Benzyl-N-{[5-(4-chlorophenyl)-1-benzofuran-2-yl]carbonyl}tyrosine] | 250 to 251 °C | ≤ 1000 |
| O=C(N[C@@H](Cc1ccc(OCc2cccc(F)c2)cc1)C(=O)O)c1cc2ccc(-c3ccc(Cl)cc3)cc2o1 [Example C153, N-{[6-(4-Chlorophenyl)-1-benzofuran-2-yl]carbonyl}-O-(3-fluorobenzyl)tyrosine] | 162 to 163 °C | ≤ 1000 |
| O=C(N[C@@H](Cc1ccc(OCc2ccccc2)cc1)C(=O)O)c1cc2ccc(-c3ccc(Cl)cc3)cc2[nH]1 [Example C163, O-Benzyl-N-{[6-(4-chlorophenyl)-1H-indol-2-yl]carbonyl}tyrosine] | 202 to 204 °C | ≤ 1000 |
| Cn1c(C(=O)N[C@@H](Cc2ccc(OCc3ccccc3)cc2)C(=O)O)cc2ccc(-c3ccc(Cl)cc3)cc21 [Example C164, O-Benzyl-N-{[6-(4-chlorophenyl)-1-methyl-1H-indole-2-yl]carbonyl}tyrosine] | 205 to 206 °C | ≤ 1000 |
| O=C(N[C@@H](Cc1ccc(OCc2ccccc2)cc1)C(=O)O)c1cc2cc(-c3ccc(Cl)cc3)ccc2[nH]1 [Example C165, O-Benzyl-N-{[5-(4-chlorophenyl)-1H-indol-2-yl]carbonyl}tyrosine] | 239 to 240 °C | ≤ 1000 |
| Cn1c(C(=O)N[C@@H](Cc2ccc(OCc3ccccc3)cc2)C(=O)O)cc2cc(-c3ccc(Cl)cc3)ccc21 [Example C166, O-Benzyl-N-{[5-(4-chlorophenyl)-1-methyl-1H-indol-2-yl]carbonyl}tyrosine] | 238 to 239 °C | ≤ 1000 |
| O=C(N[C@@H](Cc1ccc(OCc2ccccc2)cc1)C(=O)O)c1nc2ccc(-c3ccc(Cl)cc3)cc2[nH]1 [Example C167, O-Benzyl-N-{[6-(4-chlorophenyl)-1H-benzimidazol-2-yl]carbonyl}tyrosine] | 260 to 261 °C | ≤ 1000 |
